Experimental data from ChEMBL document CHEMBL5143606, “Selective Wee1 degradation by PROTAC degraders recruiting VHL and CRBN E3 ubiquitin ligases” (Bioorg Med Chem Lett, 2022).
Blank lines part the entries; values can stand above or below the molecule they belong to. Active and inactive are the calls of the source. No cut-off for these calls is given here.

Assays:
[1] = biological target: T1, Protein cereblon/Wee1-like protein kinase (Homo sapiens) (UniProt P30291+Q96SW2); assay: PROTAC activity at CRBN/Wee1 in human HeLa S3 cells assessed as induction of Wee1 degradation at 30 to 10000 nM measured after 4 hrs by Western blot analysis; type: cell-based; details: dose 30-10000 nM
[2] = biological target: T1, Protein cereblon/Wee1-like protein kinase (Homo sapiens); assay: PROTAC activity at CRBN/Wee1 in human HeLa S3 cells assessed as induction of Wee1 degradation at 1 uM measured after 24 hrs by Western blot analysis relative to control; type: cell-based
[3] = biological target: T1, Protein cereblon/Wee1-like protein kinase (Homo sapiens); assay: PROTAC activity at CRBN/Wee1 in human HeLa S3 cells assessed as induction of Wee1 degradation by measuring reduction in phosphorylation of CDK1 at Tyr15 residue at 1 uM measured after 24 hrs by Western blot analysis relative to control; type: cell-based; set-up: scale not given: the % may be the effect or the level left
[4] = biological target: T1, Protein cereblon/Wee1-like protein kinase (Homo sapiens); assay: PROTAC activity at CRBN/Wee1 in human HeLa S3 cells assessed as induction of Wee1 degradation by measuring reduction in phosphorylation of CDK1 at Tyr15 residue at 100 to 10000 nM measured after 4 hrs by Western blot analysis; type: cell-based; details: dose 100-10000 nM
[5] = biological target: T2, von Hippel-Lindau disease tumor suppressor/Wee1-like protein kinase (Homo sapiens) (UniProt P30291+P40337); assay: PROTAC activity at VHL/Wee1 in human HeLa S3 cells assessed as induction of Wee1 degradation by measuring reduction in phosphorylation of CDK1 at Tyr15 residue at 1 uM measured after 24 hrs by Western blot analysis relative to control; type: cell-based; set-up: scale not given: the % may be the effect or the level left
[6] = biological target: T2, von Hippel-Lindau disease tumor suppressor/Wee1-like protein kinase (Homo sapiens); assay: PROTAC activity at VHL/Wee1 in human HeLa S3 cells assessed as induction of Wee1 degradation by measuring reduction in phosphorylation of CDK1 at Tyr15 residue at higher concentration measured after 4 hrs by Western blot analysis; type: cell-based
[7] = biological target: T2, von Hippel-Lindau disease tumor suppressor/Wee1-like protein kinase (Homo sapiens); assay: PROTAC activity at VHL/Wee1 in human HeLa S3 cells assessed as induction of Wee1 degradation at 1 uM measured after 24 hrs by Western blot analysis relative to control; type: cell-based
[8] = biological target: T1, Protein cereblon/Wee1-like protein kinase (Homo sapiens); assay: PROTAC activity at CRBN/Wee1 in human HeLa S3 cells assessed as induction of Wee1 degradation at 1 uM measured after 4 hrs by Western blot analysis; type: cell-based
MCF7 = assay: Antiproliferative activity against human MCF7 cells assessed as inhibition of cell growth measured after 72 hrs by MTS assay; type: functional, cell-based; details: MCF7, 72 h
PC-3 = assay: Antiproliferative activity against human PC-3 cells assessed as inhibition of cell growth measured after 72 hrs by MTS assay; type: functional, cell-based; details: PC-3, 72 h
LNCaP = assay: Antiproliferative activity against human LNCaP cells assessed as inhibition of cell growth measured after 72 hrs by MTS assay; type: functional, cell-based
BT-549 = assay: Antiproliferative activity against human BT-549 cells assessed as inhibition of cell growth measured after 72 hrs by MTS assay; type: functional, cell-based; details: BT-549, 72 h
[9] = biological target: T1, Protein cereblon/Wee1-like protein kinase (Homo sapiens); assay: PROTAC activity at CRBN/Wee1 in human HeLa S3 cells assessed as induction of Wee1 degradation by measuring reduction in phosphorylation of CDK1 at Tyr15 at above 1 uM measured after 24 to 48 hrs by Western blot analysis; type: cell-based; details: time 24-48 hrs
[10] = biological target: T2, von Hippel-Lindau disease tumor suppressor/Wee1-like protein kinase (Homo sapiens); assay: PROTAC activity at VHL/Wee1 in human HeLa S3 cells assessed as induction of Wee1 degradation at 1 uM measured after 4 hrs by Western blot analysis; type: cell-based
[11] = biological target: T2, von Hippel-Lindau disease tumor suppressor/Wee1-like protein kinase (Homo sapiens); assay: PROTAC activity at VHL/Wee1 in human HeLa S3 cells assessed as induction of Wee1 degradation by measuring reduction in CDK1 phosphorylation at Tyr15 residue at above 1 uM measured after 24 to 48 hrs by Western blot analysis; type: cell-based; details: time 24-48 hrs
[12] = biological target: T2, von Hippel-Lindau disease tumor suppressor/Wee1-like protein kinase (Homo sapiens); assay: PROTAC activity at VHL/Wee1 in human HeLa S3 cells assessed as induction of Wee1 degradation at 1 uM measured after 24 to 48 hrs by Western blot analysis; type: cell-based; details: time 24-48 hrs

Activity [1]: Active | Activity [2]: 21% | Activity [3]: 38%
Structure (SMILES): C=CCn1c(=O)c2cnc(Nc3ccc(N4CCN(CCCC(=O)NCCNc5cccc6c5C(=O)N(C5CCC(=O)NC5=O)C6=O)CC4)cc3)nc2n1-c1cccc(C(C)(C)O)n1 (configuration not stated)

Activity [1]: Active | Activity [4]: Active | Activity [2]: 23% | Activity [3]: 39%
Structure (SMILES): C=CCn1c(=O)c2cnc(Nc3ccc(N4CCN(CCCC(=O)NCCCCCCNc5cccc6c5C(=O)N(C5CCC(=O)NC5=O)C6=O)CC4)cc3)nc2n1-c1cccc(C(C)(C)O)n1 (configuration not stated)

Activity [2]: 75% | Activity [3]: 54%
Structure (SMILES): C=CCn1c(=O)c2cnc(Nc3ccc(N4CCN(CCCC(=O)NCCCCCC(=O)NCCNc5cccc6c5C(=O)N(C5CCC(=O)NC5=O)C6=O)CC4)cc3)nc2n1-c1cccc(C(C)(C)O)n1 (configuration not stated)

Activity [5]: 64% | Activity [6]: Active | Activity [7]: 71%
Structure (SMILES): C=CCn1c(=O)c2cnc(Nc3ccc(N4CCN(CCCC(=O)NCCCCCC(=O)N[C@H](C(=O)N5C[C@H](O)C[C@H]5C(=O)NCc5ccc(-c6scnc6C)cc5)C(C)(C)C)CC4)cc3)nc2n1-c1cccc(C(C)(C)O)n1

Activity [5]: 47% | Activity [6]: Active | Activity [7]: 50%
Structure (SMILES): C=CCn1c(=O)c2cnc(Nc3ccc(N4CCN(CCCC(=O)NCCCCCCCCCCC(=O)N[C@H](C(=O)N5C[C@H](O)C[C@H]5C(=O)NCc5ccc(-c6scnc6C)cc5)C(C)(C)C)CC4)cc3)nc2n1-c1cccc(C(C)(C)O)n1

Activity [8]: Active | Activity [2]: 81% | Activity [3]: 80%
Structure (SMILES): C=CCn1c(=O)c2cnc(Nc3ccc(N4CCN(CCCC(=O)NCCOCCOCC(=O)NCCNc5cccc6c5C(=O)N(C5CCC(=O)NC5=O)C6=O)CC4)cc3)nc2n1-c1cccc(C(C)(C)O)n1 (configuration not stated)

Activity [2]: 83% | Activity [3]: 88%
Structure (SMILES): C=CCn1c(=O)c2cnc(Nc3ccc(N4CCN(CCCC(=O)NCCCCCCCC(=O)NCCNc5cccc6c5C(=O)N(C5CCC(=O)NC5=O)C6=O)CC4)cc3)nc2n1-c1cccc(C(C)(C)O)n1 (configuration not stated)

Activity [2]: 51% | Activity [3]: 78%
Structure (SMILES): C=CCn1c(=O)c2cnc(Nc3ccc(N4CCN(CCCC(=O)NCCOCCOCCOCCOCCOCCNc5cccc6c5C(=O)N(C5CCC(=O)NC5=O)C6=O)CC4)cc3)nc2n1-c1cccc(C(C)(C)O)n1 (configuration not stated)

Activity [1]: Active | Activity [4]: Active | Activity [2]: 38% | Activity [3]: 41%
Structure (SMILES): C=CCn1c(=O)c2cnc(Nc3ccc(N4CCN(CCCC(=O)NCCOCCNc5cccc6c5C(=O)N(C5CCC(=O)NC5=O)C6=O)CC4)cc3)nc2n1-c1cccc(C(C)(C)O)n1 (configuration not stated)

Activity [5]: 53% | Activity [6]: Active | Activity [7]: 68%
Structure (SMILES): C=CCn1c(=O)c2cnc(Nc3ccc(N4CCN(CCCC(=O)NCCCCCCCC(=O)N[C@H](C(=O)N5C[C@H](O)C[C@H]5C(=O)NCc5ccc(-c6scnc6C)cc5)C(C)(C)C)CC4)cc3)nc2n1-c1cccc(C(C)(C)O)n1

Activity [2]: 45% | Activity [3]: 65%
Structure (SMILES): C=CCn1c(=O)c2cnc(Nc3ccc(N4CCN(CCCC(=O)NCCOCCOCCOCCOCCNc5cccc6c5C(=O)N(C5CCC(=O)NC5=O)C6=O)CC4)cc3)nc2n1-c1cccc(C(C)(C)O)n1 (configuration not stated)

IC50 (MCF7): 11 µM | IC50 (PC-3): > 20 µM | IC50 (LNCaP): 11 µM | IC50 (BT-549): 9000 nM | Activity [9]: Active
Structure (SMILES): C=CCn1c(=O)c2cnc(Nc3ccc(N4CCN(CCCC(=O)NCCOCCOCCNc5cccc6c5C(=O)N(C5CCC(=O)N(C)C5=O)C6=O)CC4)cc3)nc2n1-c1cccc(C(C)(C)O)n1 (configuration not stated)

Activity [5]: 80% | Activity [10]: Active | Activity [7]: 108%
Structure (SMILES): C=CCn1c(=O)c2cnc(Nc3ccc(N4CCN(CCCC(=O)NCCOCCOCCOCCOCCC(=O)N[C@H](C(=O)N5C[C@H](O)C[C@H]5C(=O)NCc5ccc(-c6scnc6C)cc5)C(C)(C)C)CC4)cc3)nc2n1-c1cccc(C(C)(C)O)n1

Activity [5]: 55% | Activity [6]: Active | Activity [7]: 68%
Structure (SMILES): C=CCn1c(=O)c2cnc(Nc3ccc(N4CCN(CCCC(=O)NCCCC(=O)N[C@H](C(=O)N5C[C@H](O)C[C@H]5C(=O)NCc5ccc(-c6scnc6C)cc5)C(C)(C)C)CC4)cc3)nc2n1-c1cccc(C(C)(C)O)n1

Activity [5]: 72% | Activity [7]: 94%
Structure (SMILES): C=CCn1c(=O)c2cnc(Nc3ccc(N4CCN(CCCC(=O)NCCOCCOCCOCC(=O)N[C@H](C(=O)N5C[C@H](O)C[C@H]5C(=O)NCc5ccc(-c6scnc6C)cc5)C(C)(C)C)CC4)cc3)nc2n1-c1cccc(C(C)(C)O)n1

IC50 (MCF7): 1.1 µM | IC50 (PC-3): 8 µM | IC50 (LNCaP): 0.5 µM | IC50 (BT-549): 490 nM
Structure (SMILES): C=CCn1c(=O)c2cnc(Nc3ccc(N4CCN(C)CC4)cc3)nc2n1-c1cccc(C(C)(C)O)n1 [ADAVOSERTIB]

Activity [2]: 96% | Activity [3]: 84%
Structure (SMILES): C=CCn1c(=O)c2cnc(Nc3ccc(N4CCN(CCCC(=O)NCCOCCOCCOCC(=O)NCCNc5cccc6c5C(=O)N(C5CCC(=O)NC5=O)C6=O)CC4)cc3)nc2n1-c1cccc(C(C)(C)O)n1 (configuration not stated)

Activity [2]: 59% | Activity [3]: 66%
Structure (SMILES): C=CCn1c(=O)c2cnc(Nc3ccc(N4CCN(CCCC(=O)NCCOCCOCCOCCNc5cccc6c5C(=O)N(C5CCC(=O)NC5=O)C6=O)CC4)cc3)nc2n1-c1cccc(C(C)(C)O)n1 (configuration not stated)

Activity [2]: 47% | Activity [3]: 60%
Structure (SMILES): C=CCn1c(=O)c2cnc(Nc3ccc(N4CCN(CCCC(=O)NCCCC(=O)NCCNc5cccc6c5C(=O)N(C5CCC(=O)NC5=O)C6=O)CC4)cc3)nc2n1-c1cccc(C(C)(C)O)n1 (configuration not stated)

IC50 (MCF7): 3.3 µM | IC50 (PC-3): 8.7 µM | IC50 (LNCaP): 3.46 µM | Activity [11]: Active | IC50 (BT-549): 1700 nM | Activity [12]: Active
Structure (SMILES): C=CCn1c(=O)c2cnc(Nc3ccc(N4CCN(CCCC(=O)N[C@H](C(=O)N5C[C@@H](O)C[C@H]5C(=O)NCc5ccc(-c6scnc6C)cc5)C(C)(C)C)CC4)cc3)nc2n1-c1cccc(C(C)(C)O)n1

Activity [2]: 41% | Activity [3]: 41%
Structure (SMILES): C=CCn1c(=O)c2cnc(Nc3ccc(N4CCN(CCCC(=O)NCCCCCCCCCCC(=O)NCCNc5cccc6c5C(=O)N(C5CCC(=O)NC5=O)C6=O)CC4)cc3)nc2n1-c1cccc(C(C)(C)O)n1 (configuration not stated)
